Holding throughout (assay type): in vivo, human
Data set [1] can be described thus: Relative bioavailability study in healthy subjects, light snack cohort. The note with it: light snack (approximately 100-300 calories and 1.5 grams of fat), single 750 mg oral dose.
Data set [2] in a line: Ceritinib alone: side effects and dose adjustments in patients. How it is done: The doses were reduced from 750 mg in the steps of 150 mg down to the lowest 300 mg. If the patient required doses lower than 300 mg, ceritinib was discontinued. Approximately 54% of patients initiating treatment at the recommended dose of 750 mg fasted required at least one dose adjustment due to adverse reaction, with a median time to first dose reduction of approximately 7 weeks. However, based on the preliminary data from 36 patients, who were enrolled to 4 cohorts to the concomitant combination therapy of ceritinib and nivolumab, the rates of severe rash (even grade 3) were unexpectedly higher. The cohorts were as follows: cohort 1 (n=8), ceritinib 450 mg daily with a low fat meal in combination with nivolumab 3 mg/kg Q2W; cohort 2 (n=6), ceritinib 450 mg daily with a low fat meal in combination with nivolumab 3 mg/kg Q2W; cohort 3 (n=11), ceritinib 300 mg daily with a low fat meal in combination with nivolumab 3 mg/kg Q2W; cohort 4 (n=11), ceritinib 300 mg daily with a low fat meal in combination with nivolumab 3 mg/kg Q2W. Both dose levels, i.e. 450 mg and 300 mg of ceritinib, administered with the low fat meal led to severe rash. The 450 mg dose level had higher rates of some adverse events, especially grade-3 rash, than expected based on data from either single agent. The proportion of patients with grade-3 rash was higher at the 450 mg dose level, 4/14 patients (29%), than at the 300 mg dose level, 3/22 patients (14%). With regard to the efficacy of the combination therapy, of the 14 patients treated at the 450 mg dose level, 9 (64%) achieved a confirmed partial response. Of the 22 patients treated at the 300 mg dose level, 4 (18%) achieved a confirmed complete (1 patient) or partial (3 patients) response; however, limited follow up, especially for cohort 4, confounded the assessment of confirmed response. The disease control rate (DCR) was similar for the 450 mg and 300 mg dose levels, 79% and 82% respectively. […] However, the 300 mg dose level appeared to have a lower number of objective responses, although this observation was based on a small number of patients with limited follow-up. […] Therefore, based on the safety, efficacy, and PK data a new beneficial dosing regimen is provided that is expected to improve tolerability while maintaining exposure similar to that observed at the 450 mg dose level. We provide herein a dosing regimen for the combination therapy of ceritinib and an anti-PD-1 antibody molecule, where ceritinib is administered for 2 cycles before initiation of combination therapy with nivolumab. […]

Data set [3] is described as follows: Ceritinib steady state PK (AUC0-24 and Cmax) in the ceritinib and nivolumab combination cohorts. The note with it: preliminary; ceritinib in combination with nivolumab. Here is the method:
The doses were reduced from 750 mg in the steps of 150 mg down to the lowest 300 mg. If the patient required doses lower than 300 mg, ceritinib was discontinued. Approximately 54% of patients initiating treatment at the recommended dose of 750 mg fasted required at least one dose adjustment due to adverse reaction, with a median time to first dose reduction of approximately 7 weeks. However, based on the preliminary data from 36 patients, who were enrolled to 4 cohorts to the concomitant combination therapy of ceritinib and nivolumab, the rates of severe rash (even grade 3) were unexpectedly higher. The cohorts were as follows: cohort 1 (n=8), ceritinib 450 mg daily with a low fat meal in combination with nivolumab 3 mg/kg Q2W; cohort 2 (n=6), ceritinib 450 mg daily with a low fat meal in combination with nivolumab 3 mg/kg Q2W; cohort 3 (n=11), ceritinib 300 mg daily with a low fat meal in combination with nivolumab 3 mg/kg Q2W; cohort 4 (n=11), ceritinib 300 mg daily with a low fat meal in combination with nivolumab 3 mg/kg Q2W. Both dose levels, i.e. 450 mg and 300 mg of ceritinib, administered with the low fat meal led to severe rash. The 450 mg dose level had higher rates of some adverse events, especially grade-3 rash, than expected based on data from either single agent. […]

The nature of data set [4]: Food effect study of ceritinib in healthy subjects. The conditions noted are these: single oral dose 500 mg.
Where [5] appears, read: high-fat meal (approximately 1000 calories and 58 grams of fat).
Where [6] appears, read: low-fat meal (approximately 330 calories and 9 grams of fat).

For the compound `Cc1cc(Nc2ncc(Cl)c(Nc3ccccc3S(=O)(=O)C(C)C)n2)c(OC(C)C)cc1C1CCNCC1` [ceritinib, 5-chloro-N2-(2-isopropoxy-5-methyl-4-(piperidin-4-yl)phenyl)-N4-[2-(propane-2-sulfonyl)-phenyl]-pyrimidine-2,4-diamine], in data set [1], the “increase of AUCinf compared to the fasted condition” value was 54% and the “increase of Cmax compared to the fasted condition” value is given as 45%. Besides, in data set [2], the rash entry is on record as “observed rarely” and the side effects observed result was “nausea, diarrhea, vomiting, fatigue, ALT/AST elevation, constipation, abdominal pain”. In data set [2] (750 mg fasted), the “median time to first dose reduction” value is given as “approximately 7 weeks”. In addition, the “patients who required at least one dose adjustment due to adverse reaction” value in data set [2] (recommended dose of 750 mg fasted) is reported as “Approximately 54%”. In data set [3], the “steady state exposure (AUC0-24 and Cmax) at 300 mg with food relative to 450 mg with food” value is recorded as 60-65%. For the same compound, in data set [4] (setting [5]), the “increase of AUCinf compared to the fasted state” value was 73% and the “increase of Cmax compared to the fasted state” value turned out to be 41%. Moreover, in data set [4] (setting [6]), the “increase of AUCinf compared to the fasted state” value is recorded as 58% and the “increase of Cmax compared to the fasted state” value is 43%.

The values are drawn from patent US20200069685A1, “Dosing schedule for a combination of Ceritinib and an anti-PD-1 antibody molecule” (NOVARTIS AG, priority 2017, published 2020).
